Some test systems named below: OVCAR-5 ovarian; HT29 colon; SK-MEL-5 melanoma; TK-10 renal; RXF 393 renal; NCI-H226 lung; BT-549 breast; HS 578T breast; NCI-H460 lung; UACC-257 melanoma.
What all share (assay): inhibition of tumour cell growth, NCI panel, 48 h

Structures are written as SMILES.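 Each compound was tested at five concentrations against cells in 96-well plates for 48 hours. GI50: concentration for 50% inhibition of growth. The concentration for full growth arrest is given as TGI.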

On to `CCN1CCN(C(=O)[C@]23CCC(C)(C)C[C@@H]2C2=CC[C@@H]4[C@@]5(C)C/C(=C/c6ccncc6)C(=O)C(C)(C)[C@@H]5CC[C@@]4(C)[C@]2(C)CC3)CC1`, for which the GI50 was 1.66 µM with OVCAR-5 ovarian; 1.38 µM in the assay with HT29 colon; 1.6 µM in the assay on SK-MEL-5 melanoma; 1.95 µM in the assay with TK-10 renal; 1.45 µM with RXF 393 renal; 2 µM in the assay with NCI-H226 lung. Besides, the GI50 with BT-549 breast is 1.53 µM; with HS 578T breast it was 1.58 µM; in the assay on NCI-H460 lung, 1.28 µM; in the assay with UACC-257 melanoma it was 1.51 µM. Also, the TGI in the assay on OVCAR-5 ovarian came to 3.15 µM; with HT29 colon, 3.14 µM; with SK-MEL-5 melanoma it was 2.99 µM; in the assay on TK-10 renal, 3.47 µM; with RXF 393 renal, 2.81 µM; with NCI-H226 lung, 4.31 µM. The TGI with BT-549 breast came to 3.04 µM; in the assay on HS 578T breast, 4.16 µM; with NCI-H460 lung, 2.7 µM; in the assay on UACC-257 melanoma, 3.28 µM.
Regarding `c1ccc2c3c([nH]c2c1)C(c1ccc(C2NCCc4c2[nH]c2ccccc42)cc1)NCC3` (stereo not given), the GI50 was 1.81 µM in the assay with OVCAR-5 ovarian; 0.28 µM in the assay on HT29 colon; 1.7 µM with SK-MEL-5 melanoma; 1.98 µM with TK-10 renal; 1.31 µM in the assay on RXF 393 renal; 1.96 µM in the assay on NCI-H226 lung. Also, the GI50 is 11.1 µM with BT-549 breast, 1.43 µM with HS 578T breast, 0.221 µM in the assay on NCI-H460 lung and 1.91 µM in the assay on UACC-257 melanoma. Besides, the TGI in the assay on OVCAR-5 ovarian stood at 4.17 µM; with HT29 colon, 0.735 µM; in the assay on SK-MEL-5 melanoma, 3.13 µM; with TK-10 renal it was 4.09 µM; with RXF 393 renal it was 2.67 µM; in the assay with NCI-H226 lung it was 4.23 µM. The TGI with BT-549 breast stood at 24.4 µM; in the assay on HS 578T breast, 3.82 µM; in the assay on NCI-H460 lung, 0.449 µM; with UACC-257 melanoma, 3.52 µM.
Turning to `Cc1cc(N2CCN(C)CC2)n2nc(-c3ccc(Cl)cc3)nc2n1`, the TGI in the assay with OVCAR-5 ovarian, with HT29 colon, in the assay on SK-MEL-5 melanoma, with TK-10 renal, in the assay with RXF 393 renal and in the assay on NCI-H226 lung was greater than 100 µM each time. In addition, the TGI in the assay on BT-549 breast, in the assay on HS 578T breast, in the assay on NCI-H460 lung and with UACC-257 melanoma was greater than 100 µM in each case.
For `CC(=O)[O][Hg][c]1c(C)c(C)cc(C)c1C`, the GI50 in the assay with OVCAR-5 ovarian is 1.94 µM; in the assay with HT29 colon, 1.6 µM; in the assay with SK-MEL-5 melanoma, 1.8 µM; in the assay on TK-10 renal, 1.86 µM; with RXF 393 renal it was 0.482 µM; with NCI-H226 lung it was 2.05 µM. Besides, the GI50 in the assay with BT-549 breast was 1.86 µM; with HS 578T breast, 0.708 µM; with NCI-H460 lung, 0.739 µM; in the assay on UACC-257 melanoma, 1.36 µM. The TGI worked out at 3.84 µM in the assay with OVCAR-5 ovarian; 6.31 µM in the assay with HT29 colon; 4.66 µM with SK-MEL-5 melanoma; 3.84 µM with TK-10 renal; 1.24 µM in the assay on RXF 393 renal; 3.87 µM in the assay with NCI-H226 lung. Also, the TGI stood at 3.79 µM in the assay on BT-549 breast, 4.02 µM in the assay with HS 578T breast, 3.09 µM in the assay with NCI-H460 lung and 2.73 µM in the assay on UACC-257 melanoma.
On to `COc1ccc(/C(C#N)=C2C=C/C(=N/O)c3ccccc3\2)cc1`, for which the GI50 with OVCAR-5 ovarian was 2.96 µM; in the assay with HT29 colon it was 0.705 µM; in the assay with SK-MEL-5 melanoma, 0.323 µM; in the assay on TK-10 renal, 11.3 µM; with RXF 393 renal it was 0.437 µM; in the assay on NCI-H226 lung it was 3.71 µM. Further, the GI50 is 0.333 µM in the assay with BT-549 breast, 0.258 µM in the assay with HS 578T breast, 0.31 µM in the assay with NCI-H460 lung and 10.5 µM in the assay on UACC-257 melanoma. For the same compound, the TGI is 16.5 µM in the assay with OVCAR-5 ovarian; 4.53 µM in the assay with HT29 colon; 1.26 µM with SK-MEL-5 melanoma; 28 µM in the assay with TK-10 renal; 20.6 µM with RXF 393 renal; 17 µM in the assay on NCI-H226 lung. Also, the TGI in the assay with BT-549 breast was found to be 8.18 µM; with HS 578T breast, 6.33 µM; in the assay with NCI-H460 lung, 1.23 µM; in the assay on UACC-257 melanoma, 22.7 µM.
On to `CCc1nc(N)nc(N)c1-c1ccc(N2CCNCC2)cc1`, for which the TGI with OVCAR-5 ovarian was greater than 100 µM; in the assay with HT29 colon, greater than 100 µM; with SK-MEL-5 melanoma, 40.9 µM; in the assay on TK-10 renal, greater than 100 µM; with RXF 393 renal it was greater than 100 µM; in the assay with NCI-H226 lung, greater than 100 µM. The TGI with BT-549 breast is greater than 100 µM; in the assay on HS 578T breast, greater than 100 µM; in the assay on NCI-H460 lung, greater than 100 µM; in the assay on UACC-257 melanoma, greater than 86 µM.
As for `CN(CCCNC(=O)CCOCCOCCOCCNC(=O)Cc1ccc2ccc3cccc4ccc1c2c34)CCCNc1cc(-c2ccc3ccccc3c2)nc2ccccc12`, the GI50 in the assay on OVCAR-5 ovarian was 0.635 µM; in the assay on HT29 colon, 0.108 µM; with SK-MEL-5 melanoma, 0.541 µM; in the assay with TK-10 renal, 3.29 µM; with RXF 393 renal, 0.507 µM; in the assay on NCI-H226 lung, 3.94 µM. Further, the GI50 is 2.01 µM in the assay on BT-549 breast, 1.59 µM in the assay with HS 578T breast, 0.52 µM in the assay with NCI-H460 lung and 0.478 µM in the assay on UACC-257 melanoma. The TGI in the assay with OVCAR-5 ovarian is 1.18 µM; in the assay on HT29 colon, 0.419 µM; with SK-MEL-5 melanoma, 1.01 µM; with TK-10 renal, 14.7 µM; in the assay on RXF 393 renal, 0.963 µM; with NCI-H226 lung, 13.3 µM. Further, the TGI amounted to 4.68 µM in the assay with BT-549 breast, 11.5 µM in the assay on HS 578T breast, 1.02 µM in the assay with NCI-H460 lung and 0.908 µM in the assay on UACC-257 melanoma.
As to `CN1CSC(=S)N(Cc2ccccc2)C1`, the GI50 is 16.5 µM with OVCAR-5 ovarian; 3.36 µM with HT29 colon; 13.1 µM in the assay with SK-MEL-5 melanoma; 3.39 µM in the assay on TK-10 renal; 11.7 µM in the assay on RXF 393 renal; 70.5 µM in the assay on NCI-H226 lung. For the same compound, the GI50 in the assay with BT-549 breast is 17.1 µM; in the assay with HS 578T breast, 11.4 µM; in the assay with NCI-H460 lung, 15.3 µM; in the assay on UACC-257 melanoma, 13.7 µM. Further, the TGI was 30.2 µM in the assay with OVCAR-5 ovarian; 11.6 µM in the assay on HT29 colon; 26.1 µM in the assay with SK-MEL-5 melanoma; 9.41 µM with TK-10 renal; 24 µM in the assay on RXF 393 renal; greater than 100 µM in the assay on NCI-H226 lung. For the same compound, the TGI with BT-549 breast stood at 70.1 µM; with HS 578T breast it was 45.7 µM; in the assay on NCI-H460 lung it was 36.8 µM; with UACC-257 melanoma, 30.4 µM.

The values above are taken from PubChem BioAssay (NCI).
